Assay results as given in PMC11010885, “Functional Analysis and Tissue-Specific Expression of Calcitonin and CGRP with RAMP-Modulated Receptors CTR and CLR in Chickens” (Animals : an Open Access Journal from MDPI, 2024).

What was measured:
Type in all cases: cell-based
chicken CLR [1] = assay: Western blot CREB phosphorylation, CLR in CHO cells; settings: 10 nM, 10 min, n = 3
Experimental: (§1) To assess whether the activation of chicken CTR and CLR, along with the presence of RAMPs, can augment the phosphorylation levels of cAMP response element-binding protein (CREB), 200 ng of CTR or CLR expression plasmids were combined with 1000 ng of chicken RAMPs or an empty pcDNA3.1 (+) vector in a 100 μL buffer. The resulting mixture was then transfected into CHO cells in a 12-well plate (Nunc, Rochester, NY, USA) using 3.6 μL of PEI MAX transfection reagent. After a 24 h incubation period, the cells were exposed to chicken CT (10 nM) or CGRP (10 nM) for 10 min. Subsequently, the culture medium was removed, and the cells were lysed according to the manufacturer’s instructions. Western blot analysis was performed to quantify the levels of CREB and phosphorylated CREB (p-CREB). The optical densities were analyzed and normalized using the software, ImageJ 1.52a (National Institutes of Health, Bethesda, MD, USA). The relative expression of p-CREB/CREB was determined by calculating the ratio of the optical density to that of the control without peptide treatment (0 min).

chicken CTR + RAMP3 [2] = assay: cAMP/PKA pGL3-CRE-luciferase reporter assay, CTR + RAMP3 in CHO cells; settings: 10^−12 M to 10^−6 M, 6 h, mean ± SEM, n = 3, read-out: EC50, cAMP/PKA signaling pathway
Experimental: (§2) Chinese hamster ovary (CHO) cells were cultured in Dulbecco’s modified Eagle’s medium (DMEM) supplemented with 10% (vol/vol) fetal bovine serum (HyClone, Logan, UT, USA), 100 U/mL penicillin G and 100 μg/mL streptomycin. The cells were maintained in a 90 mm culture dish (Nunc, Rochester, NY, USA) and incubated at 37 °C with 5% CO2. To investigate the signaling pathways associated with each receptor in CHO cells, three different reporter systems (pGL3-CRE-luciferase, pGL4-SRE-luciferase, and pGL3-NFAT-RE-luciferase) were utilized to monitor intracellular cAMP/PKA and MAPK/ERK signaling pathways and calcium mobilization of the activated receptors, respectively.
(§3) Prior to the transfection procedure, the cells were initially cultured in 6-well plates (Nunc, Rochester, NY, USA), maintaining a seeding density of approximately 300,000 cells per well. Upon achieving approximately 70% confluence, the cells underwent a co-transfection process. […] The fluorescence activity of the luciferase in each treatment group was measured using a multimode microplate reader (TriStar LB941, Berthold Technologies, Bad Wildbad, Germany). Finally, the fluorescence activity of each treatment group was expressed as a relative increase ratio compared to the control group.

chicken CLR + RAMP1 [3] = assay: MAPK/ERK pGL4-SRE-luciferase reporter assay, CLR + RAMP1 in CHO cells; settings: 10^−12 M to 10^−6 M, 6 h, mean ± SEM, n = 3, read-out: EC50, MAPK/ERK signaling pathway
Experimental: as §2, §3

chicken CLR [4] = assay: cAMP/PKA pGL3-CRE-luciferase reporter assay, CLR + pcDNA in CHO cells
Experimental: as §2
(§4) Prior to the transfection procedure, the cells were initially cultured in 6-well plates (Nunc, Rochester, NY, USA), maintaining a seeding density of approximately 300,000 cells per well. Upon achieving approximately 70% confluence, the cells underwent a co-transfection process. This procedure entailed the introduction of 700 ng of various luciferase reporter constructs (namely, pGL3-CRE-luciferase, pGL4-SRE-luciferase, or pGL3-NFAT-RE-luciferase) combined with 200 ng of a specific receptor plasmid (CTR or CLR) and 1000 ng of either RAMP1, RAMP2, RAMP3 expression plasmids, or alternatively, the empty pcDNA3.1 (+) vector. A volume of 5.7 μL of PEI MAX was used in 200 μL of buffer following the manufacturer’s protocol. After 24 h of incubation, the transfected CHO cells were subcultured in 96-well plates and passaged for an additional 24 h before peptide treatment. Then, the medium from the 96-well plates was removed, and the cells were treated with chicken CT/CGRP-containing medium (or untreated medium as a control) at concentrations ranging from 10^−12 M to 10^−6 M for 6 h. Subsequently, the cells were harvested for luciferase assays by lysing them in 1 × passive lysis buffer. To measure the luciferase activity of the cell lysate, 40 μL of luciferase assay reagent (Promega, Madison, WI, USA) was mixed with the cell lysate following the manufacturer’s instructions. The fluorescence activity of the luciferase in each treatment group was measured using a multimode microplate reader (TriStar LB941, Berthold Technologies, Bad Wildbad, Germany). Finally, the fluorescence activity of each treatment group was expressed as a relative increase ratio compared to the control group.

chicken CTR [5] = assay: MAPK/ERK pGL4-SRE-luciferase reporter assay, CTR + pcDNA in CHO cells; settings: 10^−12 M to 10^−6 M, 6 h, mean ± SEM, n = 3, read-out: EC50, MAPK/ERK signaling pathway
Experimental: as §2, §3

chicken CLR + RAMPs = assay: Western blot CREB phosphorylation, CLR + RAMPs in CHO cells; settings: 10 nM, 10 min, n = 3
Experimental: as §1

chicken CTR + RAMP1 = assay: MAPK/ERK pGL4-SRE-luciferase reporter assay, CTR + RAMP1 in CHO cells; settings: 10^−12 M to 10^−6 M, 6 h, mean ± SEM, n = 3, read-out: EC50, MAPK/ERK signaling pathway
Experimental: as §2, §3

chicken CTR + RAMP2 = assay: MAPK/ERK pGL4-SRE-luciferase reporter assay, CTR + RAMP2 in CHO cells; settings: 10^−12 M to 10^−6 M, 6 h, mean ± SEM, n = 3, read-out: EC50, MAPK/ERK signaling pathway
Experimental: as §2, §3

chicken CLR + RAMP2 = assay: cAMP/PKA pGL3-CRE-luciferase reporter assay, CLR + RAMP2 in CHO cells; settings: 10^−12 M to 10^−6 M, 6 h, mean ± SEM, n = 3, read-out: EC50, cAMP/PKA signaling pathway
Experimental: as §2, §3

chicken CTR [6] = assay: Western blot CREB phosphorylation, CTR in CHO cells; settings: 10 nM, 10 min, n = 3
Experimental: as §1

chicken CLR [7] = assay: MAPK/ERK pGL4-SRE-luciferase reporter assay, CLR + pcDNA in CHO cells; settings: 10^−12 M to 10^−6 M, 6 h, mean ± SEM, n = 3, read-out: EC50, MAPK/ERK signaling pathway
Experimental: as §2, §3

chicken CLR + RAMP1 [8] = assay: Calcium pGL3-NFAT-RE-luciferase reporter assay, CLR + RAMP1 in CHO cells; settings: 10^−12 M to 10^−6 M, 6 h, mean ± SEM, n = 3, read-out: EC50, calcium signaling pathway
Experimental: as §2, §3

chicken CLR + RAMP3 = assay: Calcium pGL3-NFAT-RE-luciferase reporter assay, CLR + RAMP3 in CHO cells; settings: 10^−12 M to 10^−6 M, 6 h, mean ± SEM, n = 3, read-out: EC50, calcium signaling pathway
Experimental: as §2, §3

[9] = test system: chicken CLR in the absence or presence of RAMPs; assay: cAMP/PKA pGL3-CRE-luciferase reporter assay, CLR without and with RAMPs compared
Experimental: as §2, §4

chicken CTR + RAMP3 [10] = assay: Calcium pGL3-NFAT-RE-luciferase reporter assay, CTR + RAMP3 in CHO cells; settings: 10^−12 M to 10^−6 M, 6 h, mean ± SEM, n = 3, read-out: EC50, calcium signaling pathway
Experimental: as §2, §3

Substance: calcitonin [CT]
- CREB phosphorylation (p-CREB/CREB vs. control, 0 min) (chicken CLR [1]): significantly enhanced the CREB phosphorylation
- EC50 (chicken CTR + RAMP3 [2]): 0.44 ± 0.1 nM
- EC50 (chicken CLR + RAMP1 [3]): 0.89 ± 0.2 nM
- EC50 (chicken CLR [4]; CLR + pcDNA, CHO cells, pGL3-CRE-luciferase, 10^−12 M to 10^−6 M, 6 h, mean ± SEM, n = 3, read-out: EC50, cAMP/PKA signaling pathway): 0.75 ± 0.21 nM
- activation (cAMP production), in words (chicken CLR [4]; independent CLR): strongly activates
- EC50 (chicken CTR [5]): 0.15 ± 0.05 nM
- CREB phosphorylation (p-CREB/CREB vs. control, 0 min) (chicken CLR + RAMPs): significantly enhanced the CREB phosphorylation
- EC50 (chicken CTR + RAMP1): 1.38 ± 0.24 nM
- EC50 (chicken CTR + RAMP2): 2.09 ± 0.42 nM
- EC50 (chicken CLR + RAMP2): 0.93 ± 0.15 nM
- CREB phosphorylation (p-CREB/CREB vs. control, 0 min) (chicken CTR [6]): significantly increased the CREB phosphorylation
- EC50 (chicken CLR [7]): 0.3 ± 0.12 nM
- EC50 (chicken CLR + RAMP1 [8]): 5.81 ± 5.75 nM
- EC50 (chicken CLR + RAMP3): 32.3 ± 30.3 nM
- effect of RAMP co-expression on sensitivity of CLR ([9]; CHO cells, pGL3-CRE-luciferase): a slight reduction in chicken CLR’s sensitivity to CT in the presence of RAMP1
- rank order of receptor sensitivity ([9]; CLR without/with RAMPs): CLR ≈ CLR + RAMP2 ≈ CLR + RAMP3 > CLR + RAMP1
- EC50 ([9]; CLR without/with RAMPs, read-out: EC50 range over CLR, CLR + RAMP2, CLR + RAMP3, CLR + RAMP1): 0.75 to 3.3 nM
- EC50 (chicken CTR + RAMP3 [10]): > 100 nM
